US9938279B2, “Method for treating disease or condition susceptible to amelioration by AMPK activators and compounds of formula which are useful to activate AMP-activated protein kinase (AMPK)” (ENERGENESIS BIOMEDICAL CO., LTD, priority 2013, dated 2018)

Key:
AMPK [1] = test: AMPK activation assay (western blot phospho-AMPK Thr172) in C2C12; assay type: cell-based, mouse; conditions: C2C12 cells, 30 min treatment
Method: (§1) Effects of compounds on AMPK activation were analyzed in mouse muscle cell C2C12, mouse fibroblast 3T3-L1 and human hepatocyte Hep G2. Those cell lines were cultured in high-glucose Dulbecco's modified Eagle's medium (DMEM) containing 10% fetal bovine serum (FBS), 4 mM L-glutamine, 2 mM sodium pyruvate and 1% penicillin/streptomycin (Invitrogen GibcoBRL, Carlsbad, Calif., USA) at 37° C. under 5% CO2. Cells were plated at 3×10^5 per well (6-well plate). 24 h after plating, cells were treated with indicated compounds for 30 min followed by cell lysis and western blot analysis. Equal amount of protein were separated by SDS-PAGE and then electroblotted on to PVDF membranes. Membranes were blocked with 3% BSA in PBS for 60 min and incubated with anti-phospho-AMPK (Thr172) antibody (1:2,000, Cell signaling), anti-AMPK antibody (1:2,000, Cell signaling), anti-Glut4 antibody (1:1,000, Millipore) or anti-actin antibody (1:5,000; Chemicon International) at 4° C. overnight followed by the corresponding secondary antibody for 1 h at room temperature (RT). Immunoreactive bands were detected by enhanced chemiluminescence (ECL; Pierce, Rockford, Ill., USA) and recorded using Kodakfilm (Rochester, N.Y., USA). The detected signals were scanned and then quantified by using TotalLab Quant software (TotalLab).

AMPK [2] = test: AMPK activation assay (western blot phospho-AMPK Thr172) in 3T3-L1; assay type: cell-based, mouse; conditions: 3T3-L1 cells, 30 min treatment
Method: as §1

AMPK [3] = test: AMPK activation assay (western blot phospho-AMPK Thr172) in Hep G2; assay type: cell-based, human; conditions: Hep G2 cells, 30 min treatment
Method: as §1

Row | SMILES | AMPK activation (% to control) C2C12 (AMPK [1]; 1 microM) | AMPK activation (% to control) C2C12 (AMPK [1]; 10 microM) | AMPK activation (% to control) C2C12 (AMPK [1]; 100 microM) | AMPK activation (% to control) C2C12 (AMPK [1]; 200 microM) | AMPK activation (% to control) 3T3-L1 (AMPK [2]; 1 microM) | AMPK activation (% to control) 3T3-L1 (AMPK [2]; 10 microM) | AMPK activation (% to control) 3T3-L1 (AMPK [2]; 100 microM) | AMPK activation (% to control) 3T3-L1 (AMPK [2]; 200 microM) | AMPK activation (% to control) Hep G2 (AMPK [3]; 1 microM) | AMPK activation (% to control) Hep G2 (AMPK [3]; 10 microM) | AMPK activation (% to control) Hep G2 (AMPK [3]; 100 microM) | AMPK activation (% to control) Hep G2 (AMPK [3]; 200 microM)
1 | Oc1nc(S)nc2nc[nH]c12 [Example 2-mercapto-6-hydroxypurine, 2-mercapto-6-hydroxypurine] | 109 % to control | 148 % to control | 251 % to control | 333 % to control | 115 % to control | 147 % to control | 220 % to control | 308 % to control | 113 % to control | 132 % to control | 209 % to control | 315 % to control
2 | Nc1nc(S)nc2nc[nH]c12 [Example 2-mercaptoadenine, 2-mercaptoadenine] | 105 % to control | 115 % to control | 221 % to control | 289 % to control | 112 % to control | 128 % to control | 204 % to control | 297 % to control | 118 % to control | 119 % to control | 195 % to control | 308 % to control
3 | Cc1nc(O)c2[nH]cnc2n1 [Example 2-methyl-6-hydroxypurine, 2-methyl-6-hydroxypurine] | 109 % to control | 139 % to control | 241 % to control | 305 % to control | 112 % to control | 144 % to control | 228 % to control | 338 % to control | 116 % to control | 162 % to control | 219 % to control | 347 % to control
4 | O=c1[nH]cc(F)c(=O)[nH]1 [Example 5-fluorouracil, 5-fluorouracil] | 105 % to control | 105 % to control | 224 % to control | 318 % to control | 108 % to control | 113 % to control | 248 % to control | 322 % to control | 110 % to control | 134 % to control | 237 % to control | 319 % to control
5 | Cc1c[nH]c(=O)nc1N [Example 5-methylcytosine, 5-methylcytosine] | 116 % to control | 157 % to control | 241 % to control | 338 % to control | 115 % to control | 161 % to control | 253 % to control | 356 % to control | 107 % to control | 114 % to control | 218 % to control | 317 % to control
6 | O=c1cn[nH]c(=O)[nH]1 [Example 6-azauracil, 6-azauracil] | 109 % to control | 109 % to control | 197 % to control | 284 % to control | 109 % to control | 115 % to control | 185 % to control | 288 % to control | 108 % to control | 124 % to control | 199 % to control | 273 % to control
7 | c1nc(NC2CCCCC2)c2[nH]cnc2n1 [Example 6-cyclohexylaminopurine, 6-cyclohexylaminopurine] | 107 % to control | 110 % to control | 248 % to control | 322 % to control | 107 % to control | 152 % to control | 269 % to control | 333 % to control | 111 % to control | 132 % to control | 261 % to control | 354 % to control
8 | CCCCCCNc1ncnc2nc[nH]c12 [Example 6-hexylaminopurine, 6-hexylaminopurine] | 109 % to control | 123 % to control | 248 % to control | 359 % to control | 108 % to control | 111 % to control | 170 % to control | 265 % to control | 112 % to control | 148 % to control | 280 % to control | 317 % to control
9 | Sc1ncnc2nc[nH]c12 [Example 6-mercaptopurine, 6-mercaptopurine] | 105 % to control | 119 % to control | 198 % to control | 289 % to control | 114 % to control | 128 % to control | 176 % to control | 218 % to control | 114 % to control | 122 % to control | 204 % to control | 279 % to control
10 | CNc1ncnc2nc[nH]c12 [Example 6-methylaminopurine, 6-methylaminopurine] | 103 % to control | 108 % to control | 213 % to control | 328 % to control | 107 % to control | 129 % to control | 241 % to control | 347 % to control | 116 % to control | 141 % to control | 259 % to control | 363 % to control
11 | Nc1nc2[nH]cnc2c(=S)[nH]1 [Example 6-thioquanine] | 116 % to control | 141 % to control | 215 % to control | 301 % to control | 115 % to control | 132 % to control | 241 % to control | 289 % to control | 116 % to control | 133 % to control | 229 % to control | 311 % to control
12 | O=c1[nH]c(=O)n([C@H]2C[C@H](O)[C@@H](CO)O2)cc1F [Floxuridine] | 117 % to control | 144 % to control | 231 % to control | 312 % to control | 116 % to control | 141 % to control | 222 % to control | 343 % to control | 117 % to control | 147 % to control | 206 % to control | 308 % to control
